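Where inhibition never reached the appropriate level, the endpoint shown equals the highest concentration tested. Otherwise, values were interpolated linearly from a five-concentration, 48-hour dose response in 96-well plates. TGI: total growth inhibition.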
Key:
Assay in all cases: NCI tumour cell line growth inhibition, 48 h
[1] = system: MOLT-4 leukemia
[2] = system: HOP-62 NSCLC
[3] = system: HCT-116 colon
[4] = system: COLO 205 colon
[5] = system: LOX IMVI melanoma
[6] = system: SF-295 CNS
[7] = system: OVCAR-8 ovarian
[8] = system: U251 CNS
[9] = system: MALME-3M melanoma
[10] = system: K-562 leukemia
[11] = system: M14 melanoma
[12] = system: IGROV1 ovarian
[13] = system: NCI-H23 lung
[14] = system: SK-MEL-2 melanoma
[15] = system: SF-539 CNS
[16] = system: TK-10 renal
[17] = system: UO-31 renal
[18] = system: OVCAR-4 ovarian
[19] = system: HOP-92 NSCLC
[20] = system: HOP-18 NSCLC
[21] = system: 786-0 renal
[22] = system: A549 NSCLC
[23] = system: DMS 273 small cell lung
[24] = system: NCI-H226 lung
[25] = system: RXF 393 renal
[26] = system: SN12C renal
[27] = system: SK-MEL-28 melanoma
[28] = system: HCT-15 colon
[29] = system: EKVX NSCLC
[30] = system: SNB-78 CNS
[31] = system: SF-268 CNS
[32] = system: NCI-H460 lung
[33] = system: SW-620 colon
[34] = system: SNB-75 CNS
[35] = system: CCRF-CEM leukemia
[36] = system: SK-OV-3 ovarian
[37] = system: HT29 colon
[38] = system: CAKI-1 renal
[39] = system: M19-MEL melanoma
[40] = system: A498 renal
[41] = system: OVCAR-5 ovarian
[42] = system: UACC-62 melanoma
[43] = system: OVCAR-3 ovarian
[44] = system: ACHN renal
[45] = system: SNB-19 CNS
[46] = system: SK-MEL-5 melanoma
[47] = system: UACC-257 melanoma
[48] = system: DMS 114 small cell lung
[49] = system: HCC-2998 colon
[50] = system: KM12 colon
[51] = system: DLD-1 colon
[52] = system: HL-60(TB) leukemia
[53] = system: MDA-MB-231 breast
[54] = system: MCF7 breast
[55] = system: RPMI-8226 leukemia
[56] = system: T-47D breast
[57] = system: PC-3 prostate
[58] = system: HS 578T breast
[59] = system: SR leukemia
[60] = system: BT-549 breast
[61] = system: DU-145 prostate
[62] = system: NCI/ADR-RES ovarian
[63] = system: NCI-H522 lung
[64] = system: MDA-MB-435
[65] = system: MDA-N

SMILES: Cc1ccc(NS(=O)(=O)c2cc(C(C)(C)C)ccc2OCCOCCOCCOc2ccc(C(C)(C)C)cc2S(=O)(=O)Nc2ccc(C)cc2)cc1
- TGI [1]: > 100 µM
- TGI [2]: > 100 µM
- TGI [3]: > 100 µM
- TGI [4]: > 100 µM
- TGI [5]: > 100 µM
- TGI [6]: > 100 µM
- TGI [7]: > 100 µM
- TGI [8]: > 100 µM
- TGI [9]: > 100 µM
- TGI [10]: > 100 µM
- TGI [11]: > 100 µM
- TGI [12]: > 100 µM
- TGI [13]: > 100 µM
- TGI [14]: > 100 µM
- TGI [15]: > 100 µM
- TGI [16]: > 100 µM
- TGI [17]: > 100 µM
- TGI [18]: > 100 µM
- TGI [19]: > 100 µM
- TGI [20]: > 100 µM
- TGI [21]: > 100 µM
- TGI [22]: > 100 µM
- TGI [23]: > 100 µM
- TGI [24]: > 100 µM
- TGI [25]: > 100 µM
- TGI [26]: > 100 µM
- TGI [27]: > 100 µM
- TGI [28]: > 100 µM
- TGI [29]: > 100 µM
- TGI [30]: > 100 µM
- TGI [31]: > 100 µM
- TGI [32]: > 100 µM
- TGI [33]: > 100 µM
- TGI [34]: > 100 µM
- TGI [35]: > 100 µM
- TGI [36]: > 100 µM
- TGI [37]: > 100 µM
- TGI [38]: > 100 µM
- TGI [39]: > 100 µM
- TGI [40]: > 100 µM
- TGI [41]: > 100 µM
- TGI [42]: > 100 µM
- TGI [43]: > 100 µM
- TGI [44]: > 100 µM
- TGI [45]: > 100 µM
- TGI [46]: > 100 µM
- TGI [47]: > 100 µM
- TGI [48]: > 100 µM
- TGI [49]: > 100 µM
- TGI [50]: > 100 µM
- TGI [51]: > 100 µM
- TGI [52]: > 100 µM

SMILES: Clc1ccc(OCc2nnc3sc(-c4ccc(-c5ccc(Cl)cc5Cl)o4)nn23)c(Cl)c1
- TGI [1]: 41.3 µM
- TGI [53]: 33.3 µM
- TGI [2]: 31.3 µM
- TGI [3]: 31.4 µM
- TGI [4]: 73.7 µM
- TGI [5]: 36.2 µM
- TGI [6]: 33.6 µM
- TGI [7]: 32.1 µM
- TGI [8]: 37.5 µM
- TGI [9]: 39.4 µM
- TGI [10]: 62.7 µM
- TGI [54]: > 100 µM
- TGI [11]: 76.5 µM
- TGI [12]: 35.2 µM
- TGI [55]: 57.2 µM
- TGI [13]: 54 µM
- TGI [56]: 54.6 µM
- TGI [14]: 32.1 µM
- TGI [15]: 32.2 µM
- TGI [16]: 39.8 µM
- TGI [17]: 44.4 µM
- TGI [18]: > 100 µM
- TGI [19]: 37.4 µM
- TGI [21]: 26.1 µM
- TGI [57]: 33.1 µM
- TGI [22]: 46.8 µM
- TGI [24]: 41.5 µM
- TGI [25]: 30.2 µM
- TGI [26]: 38.9 µM
- TGI [27]: 60.9 µM
- TGI [28]: 49.9 µM
- TGI [29]: 34.5 µM
- TGI [58]: 54.5 µM
- TGI [59]: 25.5 µM
- TGI [31]: 32.5 µM
- TGI [32]: 55.2 µM
- TGI [33]: > 100 µM
- TGI [34]: 34.1 µM
- TGI [35]: 68.2 µM
- TGI [36]: 48.3 µM
- TGI [37]: 51.1 µM
- TGI [60]: 50.6 µM
- TGI [38]: 86.2 µM
- TGI [40]: 33.4 µM
- TGI [41]: 49.1 µM
- TGI [42]: > 100 µM
- TGI [61]: 66.8 µM
- TGI [43]: 34 µM
- TGI [44]: 45.8 µM
- TGI [45]: 56.6 µM
- TGI [62]: 45.1 µM
- TGI [46]: 44.4 µM
- TGI [47]: 38.2 µM
- TGI [63]: 34.6 µM
- TGI [49]: 36.6 µM
- TGI [50]: > 100 µM
- TGI [64]: > 100 µM
- TGI [65]: 71.3 µM
- TGI [52]: 96.6 µM

— PubChem BioAssay (NCI)
